Where two headings read alike, the source gives them in different places.
Experiments:
[1] = test system: soluble epoxide hydrolase (sEH); assay: Baboon [^18F]FNDP dynamic PET, baseline scans with kinetic modelling (2TCM, 1TCM, Logan); assay type: in vivo, baboon (Papio anubis)
Description: (§1) PET images were acquired using a CPS/CTI high-resolution research tomograph (HRRT), which has an axial resolution (FWHM) of 2.4 mm and in-plane resolution of 2.4–2.8 mm. […] These blocking studies were performed 27 to 43 days apart from each other to ensure full animal recovery. The animals had no food for 12 h prior to each PET study. Anesthesia was induced with intramuscular ketamine (7.5–10 mg/kg) and maintained with a continuous intravenous infusion of propofol at 0.3–0.4 mg/kg/min throughout the PET experiment. One venous catheter was inserted for the radioligand injection, and one arterial catheter was inserted to obtain arterial blood samples. Baboons were intubated to facilitate respiration, and circulatory volume was maintained by constant infusion of isotonic saline. Physiological vital signs including heart rate, blood pressure, electrocardiogram, and oxygen saturation were monitored continuously throughout the study.
The animals were positioned in the PET scanner with the head immobilized using a thermoplastic mask. A 6-min transmission scan was acquired using a rotating ^137Cesium source for generating attenuation maps. The 90-min dynamic PET acquisition was then started in three-dimensional list mode simultaneously with an intravenous bolus injection of [^18F]FNDP. […]
Measurement of the arterial plasma input function was conducted through collection of ~ 40 blood samples over the course of the 90-min dynamic PET study. […] Samples were then centrifuged at 1200 × g, and the plasma radioactivity was measured with a cross-calibrated PerkinElmer Wizard 2480 automatic gamma counter.
The 90 min of PET data were binned into 30 frames: four 15-s, four 30-s, three 1-min, two 2-min, five 4 -min, and 12 5-min frames. Images were reconstructed using the 3D iterative ordered subset expectation maximization (OS-EM) algorithm (with six iterations and 16 subsets) with correction for radioactive decay, deadtime, attenuation, scatter, and randoms. The reconstructed image space consisted of cubic voxels, each 1.22 mm^3 in size, and spanning dimensions of 31 cm × 31 cm (transaxially) and 25 cm (axially).
The software package PMOD (v3.7, PMOD Technologies Ltd, Zurich, Switzerland) was used for the image processing and subsequent kinetic analysis. The previously acquired T1-weighted brain MRI images for the baboon were co-registered to the reconstructed dynamic PET images acquired in this study. Through manually matching the co-registered MRI to the INIA19 Template and NeuroMaps Atlas for Primate Brain Image Parcellation and Spatial Normalization, 13 representative baboon brain volumes of interest (VOIs) were defined, […] Regional time activity curves (TACs) were then generated for both baseline and blocking PET scans using those VOIs.
(§2) Next, kinetic modeling was performed based on the TACs and the metabolite-corrected arterial plasma input functions. For brain uptake, the primary outcome measure was the regional brain distribution volume (VT) of [^18F]FNDP, defined as concentration of the radiotracer in regional tissue relative to that in blood at equilibrium. We evaluated which compartmental models (e.g., two-tissue-three-compartment (2TCM) or one-tissue-two-compartment (1TCM)) best described the [^18F]FNDP PET data, using statistical model selection criteria, such as the Akaike information criterion. For comparison, the Logan graphical method (t* = 30 min) was also used to compute regional VT, as well as generating voxel-wise parametric images of VT [31].

sEH = test system: sEH; parameters: method as in PMID 27417650; settings: self-blockade experiments; cited from earlier work
[2] = parameters: method as in PMID 27417650; settings: baboon brain; cited from earlier work
[3] = test system: soluble epoxide hydrolase (sEH); assay: Baboon [^18F]FNDP PET, dose-escalation blocking with AR-9281 (Lassen plot, occupancy); assay type: in vivo, baboon (Papio anubis)
Description: as §1
The animals were positioned in the PET scanner with the head immobilized using a thermoplastic mask. […] The 90-min dynamic PET acquisition was then started in three-dimensional list mode simultaneously with an intravenous bolus injection of [^18F]FNDP. […]
as §2
For blocking studies, occupancy of sEH by FNDP was calculated using regional VT values as Eq 1 Occupancy=ΔVT/VTBaseline−VND,
where VND, the distribution volume of non-displaceable radioligand, was obtained from the Lassen plot, i.e., using a scatterplot of ΔVT (i.e., baseline VT minus post-blocking VT) versus baseline VT of all regions. […] When that condition was satisfied, VND was given as the intercept of the regression line with the X-axis. The non-displaceable binding potential (BPND) was computed as VT /VND − 1.

[4] = Amygdala, baseline, mean ± SD of 3 baboons
[5] = Caudate, baseline, mean ± SD of 3 baboons
[6] = Cerebellum, baseline, mean ± SD of 3 baboons
[7] = Corpus callosum, baseline, mean ± SD of 3 baboons
[8] = Frontal gyrus, baseline, mean ± SD of 3 baboons
[9] = Globus pallidus, baseline, mean ± SD of 3 baboons
[10] = Hippocampus, baseline, mean ± SD of 3 baboons
[11] = Hypothalamus, baseline, mean ± SD of 3 baboons
[12] = Insula, baseline, mean ± SD of 3 baboons
[13] = Occipital cortex, baseline, mean ± SD of 3 baboons
[14] = Putamen, baseline, mean ± SD of 3 baboons
[15] = Temporal gyrus, baseline, mean ± SD of 3 baboons
[16] = Thalamus, baseline, mean ± SD of 3 baboons
[17] = White matter, baseline, mean ± SD of 3 baboons

## O=C(NCCC(c1ccccc1)c1ccccc1)c1ccc([18F])nc1 [[^18F]FNDP, N-(3,3-diphenylpropyl)-6-^18F-fluoronicotinamide]
[1]; [4]
  1TCM K1: 0.14 ± 0.03 mL/cm^3/min
  2TCM K1: 0.14 ± 0.03 mL/cm^3/min
[1]; [5]
  1TCM K1: 0.21 ± 0.05 mL/cm^3/min
  2TCM K1: 0.21 ± 0.05 mL/cm^3/min
[1]; [6]
  1TCM K1: 0.18 ± 0.03 mL/cm^3/min
  2TCM K1: 0.19 ± 0.03 mL/cm^3/min
[1]; [7]
  1TCM K1: 0.15 ± 0.03 mL/cm^3/min
  2TCM K1: 0.17 ± 0.03 mL/cm^3/min
[1]; [8]
  1TCM K1: 0.16 ± 0.04 mL/cm^3/min
  2TCM K1: 0.18 ± 0.04 mL/cm^3/min
[1]; [9]
  1TCM K1: 0.17 ± 0.03 mL/cm^3/min
  2TCM K1: 0.19 ± 0.03 mL/cm^3/min
[1]; [10]
  1TCM K1: 0.14 ± 0.03 mL/cm^3/min
  2TCM K1: 0.15 ± 0.04 mL/cm^3/min
[1]; [11]
  1TCM K1: 0.14 ± 0.03 mL/cm^3/min
  2TCM K1: 0.15 ± 0.03 mL/cm^3/min
[1]; [12]
  1TCM K1: 0.20 ± 0.05 mL/cm^3/min
  2TCM K1: 0.22 ± 0.05 mL/cm^3/min
[1]; [13]
  1TCM K1: 0.17 ± 0.06 mL/cm^3/min
  2TCM K1: 0.18 ± 0.06 mL/cm^3/min
[1]; [14]
  1TCM K1: 0.22 ± 0.05 mL/cm^3/min
  2TCM K1: 0.23 ± 0.05 mL/cm^3/min
[1]; [15]
  1TCM K1: 0.16 ± 0.03 mL/cm^3/min
  2TCM K1: 0.17 ± 0.03 mL/cm^3/min
[1]; [16]
  1TCM K1: 0.16 ± 0.03 mL/cm^3/min
  2TCM K1: 0.17 ± 0.03 mL/cm^3/min
[1]; [17]
  1TCM K1: 0.17 ± 0.04 mL/cm^3/min
  2TCM K1: 0.18 ± 0.04 mL/cm^3/min
[1]; all regions at baseline
  time of peak of regional brain TACs post-injection: < 15 min
[1]; baseline scan, Baboon3
  K1 (2TCM): 0.151 ± 0.021 mL/cm^3/min
[1]; male, baboon (Papio anubis), brain (cerebellum), intravenous, Cerebellum, baseline, mean ± SD of 3 baboons, read-out: 1TCM VT
  Kp: 7.33 ± 0.45
[1]; male, baboon (Papio anubis), brain (cerebellum), intravenous, Cerebellum, baseline, mean ± SD of 3 baboons, read-out: 2TCM VT
  Kp: 7.66 ± 0.72
[1]; male, baboon (Papio anubis), brain (globus pallidus), intravenous, Globus pallidus, baseline, mean ± SD of 3 baboons, read-out: 1TCM VT
  Kp: 9.07 ± 0.66
[1]; male, baboon (Papio anubis), brain (globus pallidus), intravenous, Globus pallidus, baseline, mean ± SD of 3 baboons, read-out: 2TCM VT
  Kp: 9.74 ± 1.02
[1]; male, baboon (Papio anubis), brain (globus pallidus), intravenous, Globus pallidus, baseline, mean ± SD of 3 baboons, read-out: Logan VT
  Kp: 9.44 ± 0.92
[1]; male, baboon (Papio anubis), brain (occipital cortex), intravenous, Occipital cortex, baseline, mean ± SD of 3 baboons, read-out: 1TCM VT
  Kp: 7.39 ± 1.56
[1]; male, baboon (Papio anubis), brain (occipital cortex), intravenous, Occipital cortex, baseline, mean ± SD of 3 baboons, read-out: 2TCM VT
  Kp: 7.82 ± 1.82
[1]; male, baboon (Papio anubis), brain (occipital cortex), intravenous, Occipital cortex, baseline, mean ± SD of 3 baboons, read-out: Logan VT
  Kp: 7.67 ± 1.63
[1]; male, baboon (Papio anubis), brain (range over regions), intravenous, baseline, 3 baboons
  total distribution volume (VT, Logan): 7.63 to 13.3
[1]; male, baboon (Papio anubis), brain (white matter), intravenous, White matter, baseline, mean ± SD of 3 baboons, read-out: 1TCM VT
  Kp: 8.43 ± 0.89
[1]; male, baboon (Papio anubis), brain (white matter), intravenous, White matter, baseline, mean ± SD of 3 baboons, read-out: 2TCM VT
  Kp: 9.29 ± 1.08
[1]; male, baboon (Papio anubis), brain (white matter), intravenous, White matter, baseline, mean ± SD of 3 baboons, read-out: Logan VT
  Kp: 9 ± 1.03
[1]; male, baboon (Papio anubis), brain, corpus callosum, intravenous, Corpus callosum, baseline, mean ± SD of 3 baboons, read-out: 1TCM VT
  Kp: 8.32 ± 0.91
[1]; male, baboon (Papio anubis), brain, corpus callosum, intravenous, Corpus callosum, baseline, mean ± SD of 3 baboons, read-out: 2TCM VT
  Kp: 9.28 ± 0.9
[1]; male, baboon (Papio anubis), brain, corpus callosum, intravenous, Corpus callosum, baseline, mean ± SD of 3 baboons, read-out: Logan VT
  Kp: 9.06 ± 0.99
[1]; male, baboon (Papio anubis), brain, frontal gyrus, intravenous, Frontal gyrus, baseline, mean ± SD of 3 baboons, read-out: 1TCM VT
  Kp: 9.58 ± 0.6
[1]; male, baboon (Papio anubis), brain, frontal gyrus, intravenous, Frontal gyrus, baseline, mean ± SD of 3 baboons, read-out: 2TCM VT
  Kp: 10.5 ± 1.01
[1]; male, baboon (Papio anubis), brain, frontal gyrus, intravenous, Frontal gyrus, baseline, mean ± SD of 3 baboons, read-out: Logan VT
  Kp: 10.3 ± 0.91
[1]; male, baboon (Papio anubis), brain, intravenous, baboon brain, baseline, read-out: baseline VT
  Kp: 10.9 ± 2.4
[1]; male, baboon (Papio anubis), brain, temporal gyrus, intravenous, Temporal gyrus, baseline, mean ± SD of 3 baboons, read-out: Logan VT
  Kp: 9.52 ± 0.57
sEH
  binding specificity for sEH: ~ 95%
[2]
  brain uptake, standardized uptake value (SUV): 4
[3]; 0.02-mg/kg AR-9281 blocking scan, Baboon3
  K1 (2TCM): 0.170 ± 0.021 mL/cm^3/min
[3]; 0.1-mg/kg AR-9281 blocking scan, Baboon3
  K1 (2TCM): 0.179 ± 0.026 mL/cm^3/min
[3]; 1-mg/kg AR-9281 blocking scan, Baboon3
  K1 (2TCM): 0.166 ± 0.032 mL/cm^3/min
[3]; Lassen plot, AR-9281 blocking scans, Baboon3
  VND (distribution volume of non-displaceable radioligand): 0.865 ± 0.066 mL/mL
[3]; baboon brain
  specific binding (binding specificity): 91.70 ± 1.74%
[3]; male, baboon (Papio anubis), brain, intravenous, read-out: high-dose blocking VT
  total distribution volume (VT): 1 ± 0.09

— paper PMC7310027, “PET imaging of soluble epoxide hydrolase in non-human primate brain with [^18F]FNDP” (EJNMMI Research, 2020)
